Test results as given in patent US5872141A, “Method of inhibiting cholesterol transport” (priority 1997, dated 1999).
Read-outs that look alike come from different tables or passages of the source. Each block holds one compound with its values, some of them ahead of it.

Key:
[1] = test system: IEC-6 cells; assay: Specific steroid uptake from TDC-DMPC micelles by IEC-6 cells; assay type: cell-based, rat
Protocol: There was less than 15% variation between duplicates. Under these conditions of incubation the monolayer remained intact.
Referring to FIG. 1, monolayers on 12 well plates of IEC-6 cells were incubated for the indicated times at 37° C. with ^3 H-cholesterol (.circle-solid.), ^14 C-sitosterol (o), or ^3 H-cholesteryl oleate (.tangle-solidup.) in TDC-DMPC micelles as described above. The concentration (75 μM) and specific activity of the steroid was the same in all three conditions. After the desired incubation period, the media was removed, the monolayers were washed, the cells solubilized, and the amount of radioactivity incorporated into the cells was determined and plotted as counts per minute in the cells. […] At 60 minutes the cholesterol content of the cells was 2.7 times the sitosterol. Since sitosterol is closely related to cholesterol both chemically and physically, this indicated a biologically specific uptake. […] Thus, the IEC-6 cells were able to absorb specifically cholesterol from the mixed micelles.

[2] = Uptake of micellar steroid from isolated duodenum into mucosal homogenate; assay type: in vivo, rat
Protocol: Fifty Wistar male rats were anesthetized with phenobarbital and a celiotomy was performed. The duodenum was isolated with ligatures of umbilical tape at the pylorus and the ligament of Treitz. One ml of a suspension of micelles containing ^3 H-cholesterol and ^14 C-sitosterol together with taurodeoxycholate (TDC) and dimyristic phosphatidyl choline (DMPC) (Safonova et al. 1994) were injected into the isolated duodenum of each rat. Following ten minutes incubation in the duodenum the gut loop was excised. The duodenum was opened lengthwise with iris scissors and mucosal contents were vigorously washed in two changes of 0.15M NaCl, 20 mM Hepes solution (pH 7.5). The mucosa was scraped free with a glass microscope slide and homogenized in a Virtis homogenizer for 5 minutes and 12 strokes in a Potter-Elvehjeim homogenizer as previously described (Conrad et al. 1993). […] Membranes were collected by centrifugation at 20,000×g for 20 minutes. Membrane proteins were extracted overnight at 4° C. in 1% Triton X 100 20 mM Hepes pH 7.5. The suspension was centrifuged at 20,000×g for 20 minutes. The solubilized material (70 ml) contained 70% of the radiolabeled cholesterol. The solubilized material was applied to a 240 ml column of DE-92 (Whatmann) equilibrated in 20 mM Hepes, 1% Triton X 100 pH 7.5 and eluted with a saline gradient. […]

[3] = test system: alkaline phosphatase; settings: levamisole 58 mM, pH 8.5, 30 minutes at 37° C., IEC-6 homogenate, FIG. 2
Protocol: An incubation mixture of […] was prepared containing 0.1 ml of 500 mM Hepes pH 8.5, 25 mM MgCl2, 2.5 μM ZnCl2, and 0.5 ml of homogenate [1.0 mg/ml protein as determined by BCA method (Pierce, Rockford, Ill.)]. The indicated amount of p-nitrophenyl phosphate was added and the incubation allowed to proceed for 30 minutes at 37° C. To some of the tubes levamisole (58 mM) was added. After the incubation the absorption at 412 nm was determined.

[4] = test system: IEC-6 cells; settings: increasing concentrations of levamisole, 30 minutes at 37° C., FIG. 3
Protocol: Radioisotopes were obtained from NEN (Billerca, Mass.) and other chemicals from Sigma (St. Louis, Mo.). ^3 H-cholesterol micelles were prepared from dimyristic phosphatidyl choline (DMPC) and taurodeoxycholate (TDC) as described by others (Safanova et al. 1994). The final solution contained 2.2×10^6 cpm/ml, 0.1 μM cholesterol, 60 mM DMPC and 6.5 mM TDC. Micelles with ^14 C-sitosterol or ^3 H-cholesteryl oleate were similarly prepared using the appropriate steroid and had the same specific activity. IEC-6 cells (Quaroni et al. 1979) obtained from the American Type Culture Collection (12301 Parklawn Drive, Rockville, Md.) were grown to confluence on 12-well Corning tissue culture plates. The media was removed and the monolayers were washed with phosphate buffered saline containing calcium, magnesium, and glucose (PBS). One ml of PBS was added to each well and 40 μl of the micellar solution (for a final steroid concentration of 4 nM). After incubation at 37° C., the plates were chilled and the wells washed four times in cold PBS. Water (0.5 ml) was added, and the plates were sonicated for 15 minutes (Branson model B-220, Shelton, Conn.) and then washed in an additional 0.5 ml of water. The water lysates were combined and counted in Ready-Safe (Beckman, Fullerton, Calif.) scintillation fluid. There was less than 15% variation between duplicates. […]

[5] = test system: IEC-6 cells; settings: 32 mM levamisole, 60 minutes at 37° C., 20-60% sucrose gradient, FIG. 5
Protocol: Two petri dishes (7.5 cm) with monolayers of IEC-6 cells were grown to confluence and used for each experiment. Each plate was washed in PBS and then incubated with 3 ml of PBS containing 120 μl of cholesterol micelles. In two parallel petri dishes an identical incubation was performed but with the addition of 32 mM levamisole. After 60 minutes incubation the dishes were chilled, washed four times with cold PBS and then harvested by scraping the dishes into 8 ml of 10 mM Hepes, 10 mM NaCl pH 7.4. The cells were homogenized using a Tissue-Tearor (Biospec Products, Bartlettsville, Okla.) at full speed for 30 seconds×3. The homogenate was layered on top of a 26 ml linear sucrose gradient from 20-60% (w/w). Centrifugation was performed over 18-20 hours at 19,000 rpm with a S-20 rotor in a Sorvall RC28S (DuPont, Wilmington, Del.) centrifuge. The tubes were punched from the bottom and 1 ml fractions collected. Standard methods were used to identify the membrane fractions (Storrie & Madden 1990) utilizing p-nitrophenyl-sugars and spectrophotometric analysis.
Referring to FIG. 4, IEC-6 cells were incubated with ^3 H-cholesterol micelles for 60 minutes at 37° C., and then washed, homogenized, and separated on 20-60% sucrose gradients. The gradients were centrifuged to equilibrium. The location of various membrane fragments was determined by standard enzymatic methods (Storrie & Madden 1990). […]

- uptake by IEC-6 cells [1]: poorly absorbed
SMILES: CCCCCCCC/C=C\CCCCCCCC(=O)O[C@H]1CC[C@@]2(C)C(=CC[C@H]3[C@@H]4CC[C@H]([C@H](C)CCCC(C)C)[C@@]4(C)CC[C@@H]32)C1 [Cholesterol ester, cholesteryl oleate]

- total uptake into the homogenate, % of added steroid ([2]; rat, in vivo, 10 min): 16%
- uptake by IEC-6 cells [1]: linear for at least an hour
SMILES: CC(C)CCC[C@@H](C)[C@H]1CC[C@H]2[C@@H]3CC=C4C[C@@H](O)CC[C@]4(C)[C@H]3CC[C@]12C [cholesterol]

SMILES: c1ccc([C@H]2CN3CCSC3=N2)cc1 [levamisole, 2,3,5,6-tetrahydro-6-phenylimidazo-[2,1-b]thiazole]
- alkaline phosphatase activity inhibition (mode) [3]: competitively inhibited
- effect of increasing drug concentration on cholesterol uptake [4]: did not result in complete inhibition of uptake
- cholesterol uptake inhibited ([4]; maximal inhibition): Approximately 50%
- subcellular location of 3H-cholesterol label [5]: majority of the label was found in the plasma membrane fraction (P)

SMILES: CC[C@H](CC[C@@H](C)[C@H]1CC[C@H]2[C@@H]3CC=C4C[C@@H](O)CC[C@]4(C)[C@H]3CC[C@]12C)C(C)C [sitosterol]
- total uptake into the homogenate, % of added steroid ([2]; rat isolated duodenum, micelles with TDC and DMPC, ten minutes incubation): 2%
- uptake by IEC-6 cells ([1]; 37° C., TDC-DMPC micelles, FIG. 1, cholesterol ester without added pancreatic cholesterol esterase): incorporated much less efficiently
